Data: publication PMC5845869 (Frontiers in Microbiology, 2018)
Where two headings read alike, the source gives them in different places. Marks after values point to notes of the source that are not given here. Ends that are not written are not given here.

Legend:
[1] = system: Candida albicans ATCC 10231; assay: MIC, CLSI-M27A3 broth microdilution in RPMI 1640; assay type: cell-based
Method: (§1) Susceptibility tests were performed in low ionic strength broth medium (LCM: 0.5% glucose, 0.25% yeast extract, 0.0125% peptone (w/v)) and in RPMI 1640 medium (Sigma-Aldrich, St Louis, MO, USA) supplemented with 0.03% (w/v) L-glutamine and buffered to pH 7.0 with 0.165 M 4-morpholinopropanesulfonic acid (Sigma-Aldrich, St Louis, MO, USA).
(§2) The CLSI-M27A3 broth microdilution method (Clinical and Laboratory Standards Institute, [2008]) was applied to determinate the minimal inhibitory concentrations (MIC) of FLC (Sigma-Aldrich, St Louis, MO, USA) and rNFAP2 against the Candida isolates (10^3 cells ml^−1) under clinically approved test conditions. For this experiment, the rNFAP2 stock was prepared in bidistilled water, and FLC in dimethyl sulfoxide (DMSO). The investigated concentration range was 64–0.0625 μg ml^−1 for FCL and 100–0.39 μg ml^−1 for rNFAP2.
(§3) LCM plates were incubated at 30°C, while RPMI 1640 plates at 35°C for 48 h without shaking, then the absorbance (OD620) was measured with a microtiter plate reader (SPECTROstar Nano, BMG Labtech, Ortenberg, Germany) after resuspension of the cultures with pipette. The absorbance of the untreated control cultures was referred to 100% growth in each case.
(§4) All susceptibility tests were repeated at least two times in three replicates.

Candida krusei CBS 573 [2] = assay: MIC, CLSI-M27A3 broth microdilution in RPMI 1640; assay type: cell-based; settings: Pichia kudriavzevii, CBS573, 48 h, pH 7; read-out: MIC of the drug alone (a)
Method: as §1, §2, §3, §4

[3] = system: Candida parapsilosis CBS 604; assay: MIC, CLSI-M27A3 broth microdilution in RPMI 1640; assay type: cell-based
Method: as §1, §2, §3, §4

[4] = system: Candida albicans ATCC 10231; assay: Checkerboard microdilution, rNFAP2 with FLC, RPMI 1640; assay type: cell-based; settings: rNFAP2 combined with FLC; RPMI 1640, 10^3 cells ml^−1, 48 h, 35°C
Method: (§5) Antifungal synergism between rNFAP2 and FLC were investigated using the checkerboard microdilution method (Eliopoulos and Moellering, [1996]) in RPMI 1640 medium applying the drug stock preparation method and cultivation conditions described in CLSI-M27A3 document (Clinical and Laboratory Standards Institute, [2008]). […] The fractional inhibitory concentration index (FICI) as a measure of synergism and antagonism was calculated (Johnson et al., [2004]). Synergism was defined as FICI≤0.5, indifference as 0.5 < FICI ≤ 4 and antagonism was defined when FICI > 4 (Odds, [2003]).
as §3, §4

[5] = system: Candida parapsilosis CBS 604; assay: as above; assay type: cell-based; settings: rNFAP2 combined with FLC; RPMI 1640, 10^3 cells ml^−1, 48 h, 35°C
Method: as §5, §3, §4

Candida glabrata CBS 138 [6] = assay: MIC, broth microdilution in LCM; assay type: cell-based; settings: 10^5 cells ml^−1, 48 h, 30°C, MIC = growth ≤ 5% (OD620)
Method: as §1
(§6) Antifungal susceptibility tests were performed with nNFAP2, rNFAP2, and sNFAP2 and its peptide fragments in LCM medium against yeast isolates (10^5 cells ml^−1) according to the broth microdilution method described by Tóth et al. ([2016]). Final drug concentration ranged from 25 to 0.098 μg ml^−1 for rNFAP2 and sNFAP2, and from 100 to 6.25 μg ml^−1 for the synthetic peptide fragments. The rNFAP2 was tested against nine yeast isolates, while the sNFAP2 and the synthetic peptide fragments against C. albicans ATCC 10231, C. krusei CBS 573, C. parapsilosis CBS 604, and S. cerevisiae SZMC 0644.
as §3, §4

[7] = system: Candida guilliermondii CBS 566; assay: MIC, broth microdilution in LCM; assay type: cell-based; settings: 10^5 cells ml^−1, 48 h, 30°C, MIC = growth ≤ 5% (OD620)
Method: as §1, §6, §3, §4

[8] = system: Candida lusitaniae CBS 6936; assay: MIC, broth microdilution in LCM; assay type: cell-based; settings: 10^5 cells ml^−1, 48 h, 30°C, MIC = growth ≤ 5% (OD620)
Method: as §1, §6, §3, §4

[9] = system: Candida tropicalis CBS 94; assay: MIC, broth microdilution in LCM; assay type: cell-based; settings: 10^5 cells ml^−1, 48 h, 30°C, MIC = growth ≤ 5% (OD620)
Method: as §1, §6, §3, §4

[10] = system: Schizosaccharomyces pombe SZMC 0142; assay: MIC, broth microdilution in LCM; assay type: cell-based; settings: 10^5 cells ml^−1, 48 h, 30°C, MIC = growth ≤ 5% (OD620)
Method: as §1, §6, §3, §4

[11] = system: Candida albicans ATCC 10231; settings: LCM, 10^5 cells ml^−1, 48 h, 30°C; MIC = growth ≤ 5% (OD620)
Method: as §1, §6, §3, §4

Candida krusei CBS 573 [12] = settings: LCM, 10^5 cells ml^−1, 48 h, 30°C; MIC = growth ≤ 5% (OD620)
Method: as §1, §6, §3, §4

[13] = system: Candida parapsilosis CBS 604; settings: LCM, 10^5 cells ml^−1, 48 h, 30°C; MIC = growth ≤ 5% (OD620)
Method: as §1, §6, §3, §4

[14] = system: Saccharomyces cerevisiae SZMC 0644; settings: LCM, 10^5 cells ml^−1, 48 h, 30°C; MIC = growth ≤ 5% (OD620)
Method: as §1, §6, §3, §4

Candida glabrata CBS 138 [15] = assay: MIC, CLSI-M27A3 broth microdilution in RPMI 1640; assay type: cell-based; settings: RPMI 1640 pH 7.0, 10^3 cells ml^−1, 48 h, 35°C; MIC = growth ≤ 5%
Method: as §1, §2, §3, §4

[16] = system: Candida guilliermondii CBS 566; assay: MIC, CLSI-M27A3 broth microdilution in RPMI 1640; assay type: cell-based; settings: RPMI 1640 pH 7.0, 10^3 cells ml^−1, 48 h, 35°C; MIC = growth ≤ 5%
Method: as §1, §2, §3, §4

[17] = system: Candida lusitaniae CBS 6936; assay: MIC, CLSI-M27A3 broth microdilution in RPMI 1640; assay type: cell-based; settings: RPMI 1640 pH 7.0, 10^3 cells ml^−1, 48 h, 35°C; MIC = growth ≤ 5%
Method: as §1, §2, §3, §4

[18] = system: Candida tropicalis CBS 94; assay: MIC, CLSI-M27A3 broth microdilution in RPMI 1640; assay type: cell-based; settings: RPMI 1640 pH 7.0, 10^3 cells ml^−1, 48 h, 35°C; MIC = growth ≤ 5%
Method: as §1, §2, §3, §4

Candida krusei CBS 573 [19] = assay: Checkerboard microdilution, rNFAP2 with FLC, RPMI 1640; assay type: cell-based; settings: rNFAP2 combined with FLC; RPMI 1640, 10^3 cells ml^−1, 48 h, 35°C
Method: as §5, §3, §4

[20] = Thermal unfolding followed by ECD spectroscopy; assay type: physicochemical
Method: ECD spectroscopic measurements were performed using a Jasco-J815 spectropolarimeter (JASCO Corporation, Tokyo, Japan), in the far-UV range (185–260 nm). Protein samples were dissolved in pure H2O in approximately 0.1 mg ml^−1 concentration and measured in a 0.1 cm pathlength quartz cuvette. First, ECD spectra of samples were recorded at 25°C with a scan speed of […]. […] The system was allowed to equilibrate for 1 min before measurements were taken at each temperature point.
The obtained melting curves were fitted with an inverse sigmoidal function of which inflection point designated the melting temperature (Tm) of the native protein structure.
ECD spectra were also recorded at 95°C, the final temperature of the thermal unfolding experiments, then samples were allowed to cool and measured again after 5 min of equilibration at 25°C. The reported spectra are accumulations of 10 scans, from which the similarly recorded, corresponding solvent spectrum was subtracted. Data are given as molar ellipticities. Accurate protein sample concentrations for the corrections of ECD spectra were determined using analytical RP-HPLC.

[21] = RPMI 1640 pH 7.0, 10^3 cells ml^−1, 48 h, 35°C, MIC = growth ≤ 5%

Compound: OC(Cn1cncn1)(Cn1cncn1)c1ccc(F)cc1F [FLC, fluconazole, reference compound]
- MIC ([1]; Candida albicans, ATCC10231, 48 h, pH 7, read-out: MIC of the drug alone (a)): 1 µg/mL
- MIC (Candida krusei CBS 573 [2]): 64 µg/mL
- MIC ([3]; Lodderomyces parapsilosis, CBS604, 48 h, pH 7, read-out: MIC of the drug alone (a)): 8 µg/mL
- MIC of the drug in combination (c) [4]: 0.25 µg/mL
- MIC of the drug in combination (c) [5]: 1 µg/mL

Compound: IATSPYYACNCPNNCKHKKGSGCKYHSGPSDKSKVISGKCEWQGGQLNCIAT (disulfide (positions not given here)) [rNFAP2, recombinant NFAP2 produced by P. chrysogenum nfap2]
- MIC (Candida glabrata CBS 138 [6]): 1.56 µg/mL
- MIC [7]: 1.56 µg/mL
- MIC [8]: 3.125 µg/mL
- MIC [9]: 1.56 µg/mL
- MIC [10]: 1.56 µg/mL
- MIC [11]: 6.25 µg/mL
- MIC (Candida krusei CBS 573 [12]): 12.5 µg/mL
- MIC [13]: 1.56 µg/mL
- MIC [14]: 3.125 µg/mL
- MIC of the drug alone (a) [1, 21]: 200^* μg ml^−1
- MIC of the drug alone (a) (Candida glabrata CBS 138 [15]): 12.5 µg/mL
- MIC of the drug alone (a) [16]: 3.125 µg/mL
- MIC of the drug alone (a) [17]: >100 µg/mL
- MIC of the drug alone (a) [3, 21]: 100 µg/mL
- MIC of the drug alone (a) [18]: >100 µg/mL
- MIC of the drug in combination (c) [4]: 6.25 µg/mL
- MIC of the drug in combination (c) (Candida krusei CBS 573 [19]): 6.25 µg/mL
- MIC of the drug in combination (c) [5]: 6.25 µg/mL
- thermal denaturation reversibility ([20]; ECD at 95°C, then re-measured after cooling, 5 min at 25°C): reversible
- Tm (melting temperature of the native protein structure) ([20]; ECD at 228 nm, 25 to 95°C at 1°C min^−1, approx. 0.1 mg ml^−1 in H2O, inflection of sigmoidal fit): 75.79 °C
- native fold remains intact up to ([20]; thermal unfolding followed by ECD): approximately 70 °C
